Key:
Conditions in all cases: compound at 10 μM
[1] = target: T1, Human δ-opioid (DOP) (Homo sapiens, UniProt P41143); assay: Radioligand binding, human δ-opioid (DOP) membranes, FlashPlate, [3H]-Bremazocine
T1 construct: purchased Perkin Elmer Biosignal
Summary of the method: (§1)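 Cloned human receptor membranes were coated onto FlashPlate wells and incubated with radioligand and compound (added from a 0.5 mM DMSO daughter plate) for 1 hour at room temperature in the dark. Scintillation counting gave percent inhibition, with DMSO defining total and reference ligand defining non-specific binding.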

[2] = target: T2, Human κ-Opioid (KOP) (Homo sapiens, UniProt P41145); assay: Radioligand binding, human κ-opioid (KOP) membranes, filtration, [3H]-Diprenorphine
T2 construct: purchased Perkin Elmer Biosignal
T2 sequence (P41145 whole entry): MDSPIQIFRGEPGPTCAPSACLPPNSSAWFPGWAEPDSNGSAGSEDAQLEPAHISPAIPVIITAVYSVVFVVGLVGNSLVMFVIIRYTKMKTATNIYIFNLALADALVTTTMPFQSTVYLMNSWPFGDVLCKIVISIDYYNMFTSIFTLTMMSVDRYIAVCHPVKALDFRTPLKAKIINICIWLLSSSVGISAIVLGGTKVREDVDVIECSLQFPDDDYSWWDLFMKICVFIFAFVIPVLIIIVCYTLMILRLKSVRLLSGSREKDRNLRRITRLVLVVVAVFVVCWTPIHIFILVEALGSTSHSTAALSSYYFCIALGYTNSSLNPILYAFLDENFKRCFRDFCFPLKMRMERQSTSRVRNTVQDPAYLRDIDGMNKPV
Summary of the method: (§2)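 Percent inhibition of radioligand binding measured on recombinant human membranes: NK1 with [125I]-Substance P, KOP with [3H]-Diprenorphine. Incubation 1 h at room temperature, then harvest onto 0.3% PEI-soaked filters, cold Tris-HCl pH 7.4 washes and scintillation counting; non-specific binding from reference ligand wells.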

[3] = target: T3, Human Melanocortin (MC3) (Homo sapiens, UniProt P41968); assay: Radioligand binding, human melanocortin MC3 membranes, FlashPlate, [125I]-NDP-αMSH
T3 construct: purchased Perkin Elmer Biosignal
T3 sequence (P41968 whole entry): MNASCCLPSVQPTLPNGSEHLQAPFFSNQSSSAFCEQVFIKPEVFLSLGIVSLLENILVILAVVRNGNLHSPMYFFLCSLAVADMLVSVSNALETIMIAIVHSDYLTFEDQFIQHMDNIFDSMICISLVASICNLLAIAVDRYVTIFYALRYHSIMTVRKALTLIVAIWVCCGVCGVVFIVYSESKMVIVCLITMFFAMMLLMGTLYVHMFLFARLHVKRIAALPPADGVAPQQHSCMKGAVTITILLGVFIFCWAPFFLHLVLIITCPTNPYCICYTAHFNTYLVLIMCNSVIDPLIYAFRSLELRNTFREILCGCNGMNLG
Summary of the method: as §1

[4] = target: T4, Human Melanocortin (MC4) (Homo sapiens, UniProt P32245); assay: Radioligand binding, human melanocortin MC4 membranes, FlashPlate, [125I]-NDP-αMSH
T4 construct: purchased Perkin Elmer Biosignal
T4 sequence (P32245 whole entry): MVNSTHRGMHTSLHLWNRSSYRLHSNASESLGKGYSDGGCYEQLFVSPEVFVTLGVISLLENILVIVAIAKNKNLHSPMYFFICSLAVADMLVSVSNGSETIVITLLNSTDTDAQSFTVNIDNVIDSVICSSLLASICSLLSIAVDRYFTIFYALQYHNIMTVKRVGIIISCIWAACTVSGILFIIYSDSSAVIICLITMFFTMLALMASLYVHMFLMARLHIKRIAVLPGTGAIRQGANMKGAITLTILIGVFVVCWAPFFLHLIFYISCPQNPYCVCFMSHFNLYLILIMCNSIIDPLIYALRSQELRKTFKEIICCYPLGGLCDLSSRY
Summary of the method: as §1

[5] = target: T5, Human melanocortin (MC5) (Homo sapiens, UniProt P33032); assay: Radioligand binding, human melanocortin MC5 membranes, FlashPlate, [125I]-NDP-αMSH
T5 construct: purchased Perkin Elmer Biosignal
T5 sequence (P33032 whole entry): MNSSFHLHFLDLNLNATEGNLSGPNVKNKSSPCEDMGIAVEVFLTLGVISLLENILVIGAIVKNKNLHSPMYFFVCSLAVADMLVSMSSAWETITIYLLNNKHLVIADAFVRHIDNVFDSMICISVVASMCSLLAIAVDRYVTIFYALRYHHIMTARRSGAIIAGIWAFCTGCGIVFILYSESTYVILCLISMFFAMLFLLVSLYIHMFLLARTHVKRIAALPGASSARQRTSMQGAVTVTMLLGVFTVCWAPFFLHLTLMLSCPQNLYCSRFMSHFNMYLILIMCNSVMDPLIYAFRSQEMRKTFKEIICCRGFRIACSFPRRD
Summary of the method: as §1

[6] = target: T6, Human melanin-concentrating hormone (MCH1) (Homo sapiens, UniProt Q99705); assay: Radioligand binding, human melanin-concentrating hormone MCH1 membranes, FlashPlate, [125I]-S36057
T6 construct: purchased Perkin Elmer Biosignal
T6 sequence (Q99705 whole entry): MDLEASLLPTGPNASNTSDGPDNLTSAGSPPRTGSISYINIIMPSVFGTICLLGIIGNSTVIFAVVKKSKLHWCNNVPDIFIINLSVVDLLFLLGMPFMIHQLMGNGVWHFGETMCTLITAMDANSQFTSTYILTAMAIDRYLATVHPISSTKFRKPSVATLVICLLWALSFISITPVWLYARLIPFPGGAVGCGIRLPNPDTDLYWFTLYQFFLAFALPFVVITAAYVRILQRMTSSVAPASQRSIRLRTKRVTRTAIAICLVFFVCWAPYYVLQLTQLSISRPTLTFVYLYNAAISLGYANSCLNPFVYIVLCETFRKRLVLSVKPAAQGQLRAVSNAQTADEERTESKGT
Summary of the method: as §1

[7] = target: T7, Human μ-opioid (MOP) (Homo sapiens, UniProt P35372); assay: Radioligand binding, human μ-opioid (MOP) membranes, FlashPlate, [3H]-Naloxone
T7 construct: purchased Perkin Elmer Biosignal
T7 sequence (P35372 whole entry): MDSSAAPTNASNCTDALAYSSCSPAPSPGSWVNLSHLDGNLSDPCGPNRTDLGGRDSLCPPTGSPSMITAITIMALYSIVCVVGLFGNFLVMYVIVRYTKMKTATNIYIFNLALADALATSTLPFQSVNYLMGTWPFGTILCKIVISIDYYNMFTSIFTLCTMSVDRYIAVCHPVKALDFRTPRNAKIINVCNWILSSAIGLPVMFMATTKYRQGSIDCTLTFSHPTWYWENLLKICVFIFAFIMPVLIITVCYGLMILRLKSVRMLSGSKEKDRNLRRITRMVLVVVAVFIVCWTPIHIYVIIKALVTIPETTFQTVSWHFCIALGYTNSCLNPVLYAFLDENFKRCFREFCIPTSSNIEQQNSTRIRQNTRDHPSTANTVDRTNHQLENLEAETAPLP
Summary of the method: as §1

[8] = target: T8, Human neurokinin (NK1) (Homo sapiens, UniProt P25103); assay: Radioligand binding, human neurokinin NK1 membranes, filtration, [125I]-Substance P
T8 construct: purchased Perkin Elmer Biosignal
T8 sequence (P25103 whole entry): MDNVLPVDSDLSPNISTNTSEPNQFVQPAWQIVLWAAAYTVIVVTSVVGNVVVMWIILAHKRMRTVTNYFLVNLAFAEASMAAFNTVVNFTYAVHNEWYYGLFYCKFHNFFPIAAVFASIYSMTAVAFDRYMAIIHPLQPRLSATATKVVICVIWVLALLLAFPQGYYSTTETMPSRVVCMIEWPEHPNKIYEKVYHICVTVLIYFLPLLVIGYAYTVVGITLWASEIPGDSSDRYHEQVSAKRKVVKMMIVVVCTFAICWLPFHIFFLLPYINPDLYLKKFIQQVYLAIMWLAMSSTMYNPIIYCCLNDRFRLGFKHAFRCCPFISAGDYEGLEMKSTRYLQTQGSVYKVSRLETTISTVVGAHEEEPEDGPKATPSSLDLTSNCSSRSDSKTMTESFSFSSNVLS
Summary of the method: as §2

[9] = target: T9, Human neuropeptide Y (NPY-Y1) (Homo sapiens, UniProt P25929); assay: Radioligand binding, human neuropeptide Y NPY-Y1 membranes, FlashPlate, [125I]-PYY
T9 construct: purchased Perkin Elmer Biosignal
T9 sequence (P25929 1-384): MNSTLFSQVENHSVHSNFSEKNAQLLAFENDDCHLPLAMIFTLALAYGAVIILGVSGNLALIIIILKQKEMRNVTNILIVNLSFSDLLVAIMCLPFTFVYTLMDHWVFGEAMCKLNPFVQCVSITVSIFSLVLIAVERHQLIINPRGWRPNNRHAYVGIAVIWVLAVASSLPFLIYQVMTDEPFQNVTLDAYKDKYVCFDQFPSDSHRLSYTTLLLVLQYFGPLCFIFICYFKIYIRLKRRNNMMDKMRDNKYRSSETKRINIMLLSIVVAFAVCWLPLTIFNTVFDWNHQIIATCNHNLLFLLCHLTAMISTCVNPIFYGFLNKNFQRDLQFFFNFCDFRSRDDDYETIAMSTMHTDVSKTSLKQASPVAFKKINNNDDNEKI
Summary of the method: as §1

[10] = target: T10, Human opioid (ORL1) (Homo sapiens, UniProt P41146); assay: Radioligand binding, human opioid ORL1 membranes, FlashPlate, [125I]-Nociceptin
T10 construct: purchased Perkin Elmer Biosignal
T10 sequence (P41146 whole entry): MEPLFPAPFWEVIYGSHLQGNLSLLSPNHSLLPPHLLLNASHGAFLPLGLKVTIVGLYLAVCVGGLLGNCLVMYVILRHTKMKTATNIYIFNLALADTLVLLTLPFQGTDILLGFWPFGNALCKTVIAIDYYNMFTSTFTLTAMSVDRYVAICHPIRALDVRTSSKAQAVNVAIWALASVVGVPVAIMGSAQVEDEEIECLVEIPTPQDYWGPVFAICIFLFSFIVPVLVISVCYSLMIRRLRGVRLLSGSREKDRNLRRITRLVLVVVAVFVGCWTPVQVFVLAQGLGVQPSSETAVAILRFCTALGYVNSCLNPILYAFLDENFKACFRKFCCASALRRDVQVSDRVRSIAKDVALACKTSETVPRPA
Summary of the method: as §1

[11] = target: T11, Mouse urotensin (mUR2) (Mus musculus, UniProt Q8VIH9); assay: Radioligand binding, mouse urotensin mUR2 membranes, FlashPlate, [125I]-Urotensin II
T11 construct: purchased Perkin Elmer Biosignal
T11 sequence (Q8VIH9 1-385): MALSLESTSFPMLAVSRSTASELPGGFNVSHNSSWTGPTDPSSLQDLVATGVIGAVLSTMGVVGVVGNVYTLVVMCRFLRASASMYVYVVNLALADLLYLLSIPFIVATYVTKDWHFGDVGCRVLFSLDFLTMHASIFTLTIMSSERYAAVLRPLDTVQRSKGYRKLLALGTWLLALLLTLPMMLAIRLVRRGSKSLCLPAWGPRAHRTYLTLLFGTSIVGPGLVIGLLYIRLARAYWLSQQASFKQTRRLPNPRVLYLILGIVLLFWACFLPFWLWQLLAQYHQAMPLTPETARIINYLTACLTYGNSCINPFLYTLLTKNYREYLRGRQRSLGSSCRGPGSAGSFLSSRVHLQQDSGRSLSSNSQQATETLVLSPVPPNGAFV
Summary of the method: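 Cloned mouse urotensin (mUR2) receptor membranes from Perkin Elmer Biosignal were immobilized in FlashPlate microplates using a proprietary coating. Each well got 19.5 μl buffer, then 0.5 μl of DMSO, reference ligand, or compound. Adding 5 μl of [125I]-Urotensin II, diluted to 5× final concentration in binding buffer, started binding. Plates were sealed with TopSeal-A and incubated 1 hour at room temperature in the dark. Wells were counted for 30 seconds each on a TopCount after a 60-second delay, and percentage inhibition was calculated.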

T1 sequence (P41143 whole entry): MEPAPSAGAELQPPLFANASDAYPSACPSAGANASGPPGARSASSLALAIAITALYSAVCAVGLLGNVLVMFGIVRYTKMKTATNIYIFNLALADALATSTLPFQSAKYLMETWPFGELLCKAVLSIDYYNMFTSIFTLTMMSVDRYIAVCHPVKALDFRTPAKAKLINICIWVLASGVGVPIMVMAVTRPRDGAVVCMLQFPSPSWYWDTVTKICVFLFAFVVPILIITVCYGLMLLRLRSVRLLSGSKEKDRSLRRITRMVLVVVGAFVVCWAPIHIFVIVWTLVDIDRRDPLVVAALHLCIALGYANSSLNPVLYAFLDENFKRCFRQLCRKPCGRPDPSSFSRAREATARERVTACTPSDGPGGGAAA

## CO[C@H]1[C@H](O)[C@@H](COCc2ccc(-c3ccccc3)cc2)OC(OCc2ccc(Cl)cc2)[C@@H]1NC(=O)CCCN (stereo partly drawn) [compound 95]
[1]; [3H]-Bremazocine
  A1 radioligand binding, percentage inhibition: − (“−” indicates less than 50% inhibition at 10 μM)
[2]; [3H]-Diprenorphine
  A2 radioligand binding, percentage inhibition: − (“−” indicates less than 50% inhibition at 10 μM)
[3]; [125I]-NDP-αMSH
  A3 radioligand binding, percentage inhibition: − (“−” indicates less than 50% inhibition at 10 μM)
[4]; [125I]-NDP-αMSH
  A4 radioligand binding, percentage inhibition: + (“+” indicates greater than 50% inhibition at 10 μM)
[5]; [125I]-NDP-αMSH
  A5 radioligand binding, percentage inhibition: + (“+” indicates greater than 50% inhibition at 10 μM)
[6]; [125I]-S36057
  A6 radioligand binding, percentage inhibition: + (“+” indicates greater than 50% inhibition at 10 μM)
[7]; [3H]-Naloxone
  A7 radioligand binding, percentage inhibition: − (“−” indicates less than 50% inhibition at 10 μM)
[8]; [125I]-Substance P
  A8 radioligand binding, percentage inhibition: + (“+” indicates greater than 50% inhibition at 10 μM)
[9]; [125I]-PYY
  A9 radioligand binding, percentage inhibition: − (“−” indicates less than 50% inhibition at 10 μM)
[10]; [125I]-Nociceptin
  A10 radioligand binding, percentage inhibition: + (“+” indicates greater than 50% inhibition at 10 μM)
[11]; [125I]-Urotensin II
  A11 radioligand binding, percentage inhibition: − (“−” indicates less than 50% inhibition at 10 μM)

## COC[C@H]1OC(OCc2ccc(Cl)cc2)[C@H](NC(=O)CCCNC(=N)N)[C@@H](OCc2ccc3ccccc3c2)[C@@H]1O (stereo partly drawn) [compound 33]
[1]; human δ-opioid (DOP) membranes
  A1 radioligand binding inhibition: − (“−” indicates less than 50% inhibition at 10 μM)
[2]; human κ-opioid (KOP) membranes
  A2 radioligand binding inhibition: − (“−” indicates less than 50% inhibition at 10 μM)
[3]; human melanocortin MC3 membranes
  A3 radioligand binding inhibition: − (“−” indicates less than 50% inhibition at 10 μM)
[4]; human melanocortin MC4 membranes
  A4 radioligand binding inhibition: − (“−” indicates less than 50% inhibition at 10 μM)
[5]; human melanocortin MC5 membranes
  A5 radioligand binding inhibition: − (“−” indicates less than 50% inhibition at 10 μM)
[6]; human MCH1 membranes
  A6 radioligand binding inhibition: + (“+” indicates greater than 50% inhibition at 10 μM)
[7]; human μ-opioid (MOP) membranes
  A7 radioligand binding inhibition: − (“−” indicates less than 50% inhibition at 10 μM)
[8]; human neurokinin NK1 membranes
  A8 radioligand binding inhibition: + (“+” indicates greater than 50% inhibition at 10 μM)
[9]; human NPY-Y1 membranes
  A9 radioligand binding inhibition: − (“−” indicates less than 50% inhibition at 10 μM)
[10]; human ORL1 membranes
  A10 radioligand binding inhibition: − (“−” indicates less than 50% inhibition at 10 μM)
[11]; mouse urotensin mUR2 membranes
  A11 radioligand binding inhibition: − (“−” indicates less than 50% inhibition at 10 μM)

## CSC1OC(COCc2ccc3ccccc3c2)C(O)C(OCc2ccccc2)C1NC(=O)CCNC(=N)N (stereo not drawn) [compound 262]
[1]; [3H]-Bremazocine, FlashPlate
  A1: inhibition of radioligand binding: − (“−” indicates less than 50% inhibition at 10 μM)
[2]; [3H]-Diprenorphine, filtration
  A2: inhibition of radioligand binding: − (“−” indicates less than 50% inhibition at 10 μM)
[3]; [125I]-NDP-αMSH, FlashPlate
  A3: inhibition of radioligand binding: − (“−” indicates less than 50% inhibition at 10 μM)
[4]; [125I]-NDP-αMSH, FlashPlate
  A4: inhibition of radioligand binding: − (“−” indicates less than 50% inhibition at 10 μM)
[5]; [125I]-NDP-αMSH, FlashPlate
  A5: inhibition of radioligand binding: + (“+” indicates greater than 50% inhibition at 10 μM)
[6]; [125I]-S36057, FlashPlate
  A6: inhibition of radioligand binding: − (“−” indicates less than 50% inhibition at 10 μM)
[7]; [3H]-Naloxone, FlashPlate
  A7: inhibition of radioligand binding: − (“−” indicates less than 50% inhibition at 10 μM)
[8]; [125I]-Substance P, filtration
  A8: inhibition of radioligand binding: + (“+” indicates greater than 50% inhibition at 10 μM)
[9]; [125I]-PYY, FlashPlate
  A9: inhibition of radioligand binding: − (“−” indicates less than 50% inhibition at 10 μM)
[10]; [125I]-Nociceptin, FlashPlate
  A10: inhibition of radioligand binding: − (“−” indicates less than 50% inhibition at 10 μM)
[11]; [125I]-Urotensin II, FlashPlate
  A11: inhibition of radioligand binding: − (“−” indicates less than 50% inhibition at 10 μM)

— patent US20080009418A1, “Selective Inhibitors” (Alchemia LTD., priority 2004, published 2008)
